The results in this text go back to ChEMBL document CHEMBL4602647, “Protective effects of 10,11-dihydro-5H-dibenzo[b,f]azepine hydroxamates on vascular cognitive impairment” (Eur J Med Chem, 2020).

Values after ≈ are worked out from the molar mass of the structure shown. Active and inactive are the calls of the source. No cut-off for these calls is given here.

For series [1], the system named is Mus musculus. Kind of series: Upregulation of acetylated H4K5 protein expression in hippocampus of bilateral common carotid artery occlusion-induced vascular dementia C57BL/6J mouse model at 25 mg/kg, ip measured after 3 months by Western blot analysis. The format is functional, organism-based. Background: In western blotting, separated proteins are transferred to a membrane and probed.

The test system of series [2] is Mus musculus. As to the kind of experiment: Anti-vascular cognitive impairment activity against bilateral common carotid artery occlusion-induced vascular dementia C57BL/6J mouse model assessed as reversal of hippocampal atrophy by measuring increase in hippocampal volume at 25 mg/kg, ip administered post surgery measured after 3 months by 7T-MRI analysis. The format is functional, organism-based.

Series [3] is described as follows: Half life in Sprague-Dawley rat at 2 mg/kg, iv measured up to 24 hrs. The format is ADME, organism-based. To be noted: in vivo.
In series [4] the test system is Mus musculus. As to the kind of experiment: Upregulation of acetylated H3K14 protein expression in hippocampus of bilateral common carotid artery occlusion-induced vascular dementia C57BL/6J mouse model at 25 mg/kg, ip measured after 3 months by Western blot analysis. The format is functional, organism-based.
Series [5] can be described thus: Aqueous solubility of compound in ethanol incubated at 37 degree C by LC-MS analysis. The format is physicochemical.
For series [6], the target named is T1, Protein deacetylase HDAC6 (Homo sapiens, UniProt Q9UBN7).
T1 sequence (Q9UBN7 whole entry): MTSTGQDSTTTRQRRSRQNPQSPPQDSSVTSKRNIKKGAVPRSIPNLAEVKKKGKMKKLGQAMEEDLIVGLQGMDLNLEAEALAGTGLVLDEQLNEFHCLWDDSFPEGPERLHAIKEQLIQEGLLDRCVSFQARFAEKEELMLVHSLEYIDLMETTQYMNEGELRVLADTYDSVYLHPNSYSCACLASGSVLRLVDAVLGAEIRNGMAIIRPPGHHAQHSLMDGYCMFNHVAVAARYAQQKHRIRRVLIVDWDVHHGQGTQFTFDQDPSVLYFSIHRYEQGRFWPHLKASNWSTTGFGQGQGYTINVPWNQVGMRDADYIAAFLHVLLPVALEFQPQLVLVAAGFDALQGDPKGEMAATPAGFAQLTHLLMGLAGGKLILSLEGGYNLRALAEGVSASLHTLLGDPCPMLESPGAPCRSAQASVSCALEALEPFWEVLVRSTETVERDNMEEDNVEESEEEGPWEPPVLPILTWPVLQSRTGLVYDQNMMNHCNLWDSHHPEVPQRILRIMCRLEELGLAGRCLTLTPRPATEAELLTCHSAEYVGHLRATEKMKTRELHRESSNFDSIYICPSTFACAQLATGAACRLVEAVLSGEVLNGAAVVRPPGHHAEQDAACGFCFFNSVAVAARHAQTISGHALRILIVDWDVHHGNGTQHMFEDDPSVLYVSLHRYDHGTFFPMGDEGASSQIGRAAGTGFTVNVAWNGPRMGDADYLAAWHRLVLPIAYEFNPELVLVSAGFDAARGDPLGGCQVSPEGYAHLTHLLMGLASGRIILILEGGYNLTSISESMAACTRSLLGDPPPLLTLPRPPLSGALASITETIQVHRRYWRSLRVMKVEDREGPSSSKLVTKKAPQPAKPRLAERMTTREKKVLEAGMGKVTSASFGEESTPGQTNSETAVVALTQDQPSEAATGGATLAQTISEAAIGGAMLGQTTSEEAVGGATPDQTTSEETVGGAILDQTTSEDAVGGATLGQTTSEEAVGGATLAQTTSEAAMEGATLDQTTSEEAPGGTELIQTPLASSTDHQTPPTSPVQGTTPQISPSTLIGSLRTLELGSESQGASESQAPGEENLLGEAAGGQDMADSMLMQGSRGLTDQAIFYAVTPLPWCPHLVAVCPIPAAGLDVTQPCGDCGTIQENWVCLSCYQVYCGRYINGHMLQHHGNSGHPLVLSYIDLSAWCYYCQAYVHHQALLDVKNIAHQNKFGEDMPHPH
Kind of series: Inhibition of recombinant human N-terminal GST-tagged HDAC6 (1 to 1215 residues) expressed in baculovirus infected insect cells using RHK-K(Ac)-AMC as substrate after 90 mins by fluorimetry analysis.

In series [7] the test system is Mus musculus. Kind of series: Anti-vascular cognitive impairment activity against bilateral common carotid artery occlusion-induced vascular dementia C57BL/6J mouse model assessed as ratio of cerebral blood flow in left parietal area at 25 mg/kg, ip administered post surgery measured after 3 months(reference value: 0.792 +/- 0.029). The format is functional.
Series [8] is described as follows: Clearance in Sprague-Dawley rat at 2 mg/kg, iv measured up to 24 hrs. The format is ADME, organism-based. To be noted: in vivo.
Series [9] is described as follows: Aqueous solubility of compound in water incubated at 37 degree C by LC-MS analysis. The format is physicochemical.
The test system of series [10] is Mus musculus. As to the kind of experiment: Anti-vascular cognitive impairment activity against bilateral common carotid artery occlusion-induced vascular dementia C57BL/6J mouse model assessed as reversal of hippocampal atrophy by measuring increase in ratio of size of hippocampus to lateral ventricle at 25 mg/kg, ip administered post surgery measured after 3 months by 7T-MRI analysis. The format is functional, organism-based.

The target of another series is Histone deacetylase 4 (Homo sapiens, UniProt P56524). Kind of series: Inhibition of recombinant N-terminal GST-tagged/C-terminal His-tagged human HDAC4 (627 to 1084 residues) expressed in baculovirus infected insect cells using RHK-K(Ac)-AMC as substrate after 60 mins by fluorimetry analysis.
For series [11], the system named is Mus musculus. As to the kind of experiment: Anti-vascular cognitive impairment activity against bilateral common carotid artery occlusion-induced vascular dementia C57BL/6J mouse model assessed as improvement in short-term non-spatial working memory by measuring increase in novel object recognition at 25 mg/kg, ip administered post surgery measured after 1 to 3 months by novel object recognition test. The format is functional, organism-based.

Series [12] in a line: Oral bioavailability in Sprague-Dawley rat at 10 mg/kg measured up to 24 hrs. The format is ADME, organism-based. To be noted: in vivo.
Series [13] in a line: Half life in Sprague-Dawley rat at 10 mg/kg, po measured up to 24 hrs. The format is ADME, organism-based. Conditions: in vivo.
Series [14] is described as follows: AUC (0 to infinity) in Sprague-Dawley rat at 2 mg/kg, iv measured up to 24 hrs. The format is ADME, organism-based. Further details: dose 2 mg/kg, time infinity, route intravenous. Conditions: in vivo.
Series [15] in a line: Cmax in Sprague-Dawley rat at 10 mg/kg, po measured up to 24 hrs. The format is ADME, organism-based. More on the design: dose 10 mg/kg, route oral. To be noted: in vivo.

What is called half-life is the time in which the quantity being followed falls by half. High values mean slow decline, low ones rapid decline. Broadly, the solubility is the concentration that dissolves in the medium under given conditions. As usually defined, the IC50 is the concentration that gives 50% inhibition. By clearance is commonly meant the rate of elimination divided by the concentration. As a reminder, the bioavailability is dose-corrected exposure relative to a reference, in per cent. Low values mean little systemic uptake, high ones much systemic uptake. As a reminder, the AUC(0-inf) is total exposure, with the tail of the curve extrapolated. Read a low AUC(0-inf) as less exposure. A word on the Cmax: it is the highest concentration seen after dosing.

Chain of Histone deacetylase 4 (P56524 whole entry, the tested form may be a part): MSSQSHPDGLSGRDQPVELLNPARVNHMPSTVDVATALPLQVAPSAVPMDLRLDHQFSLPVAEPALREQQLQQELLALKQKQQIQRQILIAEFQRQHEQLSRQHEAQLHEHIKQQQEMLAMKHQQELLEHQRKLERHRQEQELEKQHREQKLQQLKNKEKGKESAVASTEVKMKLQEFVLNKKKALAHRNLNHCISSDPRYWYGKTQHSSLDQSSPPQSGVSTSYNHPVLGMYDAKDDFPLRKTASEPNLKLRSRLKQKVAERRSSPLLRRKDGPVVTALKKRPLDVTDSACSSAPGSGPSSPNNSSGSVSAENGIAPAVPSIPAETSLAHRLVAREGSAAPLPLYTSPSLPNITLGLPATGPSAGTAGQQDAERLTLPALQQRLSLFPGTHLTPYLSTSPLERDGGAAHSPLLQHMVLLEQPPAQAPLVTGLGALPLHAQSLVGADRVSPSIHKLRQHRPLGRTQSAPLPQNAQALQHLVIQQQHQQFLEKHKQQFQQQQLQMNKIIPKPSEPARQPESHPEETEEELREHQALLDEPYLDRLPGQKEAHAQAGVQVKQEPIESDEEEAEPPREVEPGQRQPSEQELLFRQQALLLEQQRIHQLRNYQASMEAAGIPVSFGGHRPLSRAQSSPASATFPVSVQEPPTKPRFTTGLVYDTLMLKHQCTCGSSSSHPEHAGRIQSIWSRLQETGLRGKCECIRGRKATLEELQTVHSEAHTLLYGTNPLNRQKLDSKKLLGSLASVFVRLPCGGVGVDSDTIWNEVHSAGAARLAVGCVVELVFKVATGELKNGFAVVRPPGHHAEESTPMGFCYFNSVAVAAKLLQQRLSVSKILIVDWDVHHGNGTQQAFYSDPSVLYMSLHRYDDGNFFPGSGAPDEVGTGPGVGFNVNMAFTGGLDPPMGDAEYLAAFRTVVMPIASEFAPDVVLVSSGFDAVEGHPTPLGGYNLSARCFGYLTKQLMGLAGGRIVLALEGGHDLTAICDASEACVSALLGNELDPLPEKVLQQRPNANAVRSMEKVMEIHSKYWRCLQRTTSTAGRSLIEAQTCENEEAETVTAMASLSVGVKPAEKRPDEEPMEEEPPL

As to `O=C(/C=C/c1ccc(CNCCCN2c3ccccc3CCc3ccc(Cl)cc32)cc1)NO`, the outcome in the series with Mus musculus [1], in the series with Mus musculus [2], with Mus musculus [4], in the series with Mus musculus [10] and in the series with Mus musculus [11] was Active. For the same molecule, the half-life in series [3] was 17.2 h; in series [13], 10.9 h. In addition, the solubility was 6.58 µg/mL (≈ 14.2 µM) in series [5] and under 1 µg/mL in series [9]. For the same molecule, the 50% inhibitory concentration (IC50) is 1270 nM in series [6] and “Not Active” at Histone deacetylase 4. The Ratio with Mus musculus [7] was determined as 0.896. In addition, the clearance in series [8] was determined as 21.3 mL/min/kg. The bioavailability in series [12] stood at 1.8%. The molecule further showed an AUC(0-inf) in series [14] of 1850 ng·h/mL. For the same molecule, the peak level in [15] (Cmax) was 8.9 ng/mL.
